Where two headings read alike, the source gives them in different places. Values belong to the molecule of their own block, whether it stands above or below them.
Biological target: homodimer
Test: Dimer dissociation constant from concentration dependence of NH chemical shifts (NMR)
Type: binding
Text: Dimerization of the Ach-containing peptide analogs of this invention can be detected by observing changes in NH chemical shifts as a function of concentration. For a dimerization process with dissociation constant Kd and NMR chemical shifts δmono and δdi, respectively, the observed chemical shift, δobs, as a function of concentration c is expressed by the following equation: [formula]
Experimental data were obtained for Ac-Phe-Ach-Leu-Ach-Ile, N-methyl amide and for its corresponding sarcosine-containing peptide corresponding to Ac-Phe-Sar-Leu-Sar-Ile, N-methyl amide, as well as for various other Ach-containing peptide analogs of this invention terminating in carboxylic acid groups rather than N-methyl amide groups, all in CDCl3 or CD3OH/CDCl3 at 25° C.
To distinguish between the two species, the dissociation constants of dimers of each species were determined.

- Kd (0% CD3OH/CDCl3 (pure CDCl3), 25° C., read-out: Dissociation constant Kd (dimer)): 400 µM
Molecule: CCC(C)C(NC1=CC(=O)CN(C(=O)C(CC(C)C)NC2=CC(=O)CN(C(=O)C(Cc3ccccc3)NC(C)=O)C2)C1)C(=O)NC (stereo not drawn) [Ac-Phe-Ach-Leu-Ach-Ile-NHMe, Ac-Phe-Ach-Leu-Ach-Ile, N-Methyl Amide]

- Kd (15% CD3OH/CDCl3, 25° C., read-out: Dissociation constant Kd (dimer)): 1500 µM
Molecule: Ac-Leu-Ach-Val-Ach-Leu-Ach-Phe-OH [Ach-containing peptide analog (heptamer) terminating in carboxylic acid group]

- Kd (2.5% CD3OH/CDCl3, 25° C., read-out: Dissociation constant Kd (dimer)): 90 µM
- Kd (5% CD3OH/CDCl3, 25° C., read-out: Dissociation constant Kd (dimer)): 8000 µM
- Kd (pure chloroform, extrapolated from Kd vs CD3OH concentration, read-out: Dissociation constant in pure chloroform, extrapolation of the line in FIG. 1): ~0.13 µM
Molecule: Ac-Phe-Ach-Leu-Ach-Val-OH [Ach-containing peptide analog terminating in carboxylic acid group]

- Kd (5% CD3OH/CDCl3, concentration range 0.6-42 mM, read-out: Dimer dissociation constant): 25000 µM
Molecule: Phe-Gly-Ser-D-Pro-Ala-Leu-Ach-Ile [hybrid 1]
